Test results as given in PMC8151276, “An Integrated Approach toward NanoBRET Tracers for Analysis of GPCR Ligand Engagement” (Molecules, 2021).

Columns and labels:
Type in all cases: binding
ADORA2B = target: T1, ADORA2B (Homo sapiens, UniProt P29275); assay: NanoBRET screen HiBiT-ADORA2B in HEK293
T1 construct: purchased Promega (in-house HiBiT-GPCR construct library, NanoBRET)
T1 sequence (P29275 1-332): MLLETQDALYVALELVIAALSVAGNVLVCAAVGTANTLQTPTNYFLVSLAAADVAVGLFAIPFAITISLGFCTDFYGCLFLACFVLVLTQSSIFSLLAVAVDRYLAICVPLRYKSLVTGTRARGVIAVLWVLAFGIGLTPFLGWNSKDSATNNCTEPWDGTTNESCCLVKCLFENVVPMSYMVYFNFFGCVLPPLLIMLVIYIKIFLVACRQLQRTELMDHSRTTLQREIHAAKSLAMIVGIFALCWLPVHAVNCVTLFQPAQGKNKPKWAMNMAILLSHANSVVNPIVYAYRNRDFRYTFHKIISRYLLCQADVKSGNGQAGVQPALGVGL
Description: (§1) Each tracer candidate was screened across the entire library of HiBiT-GPCR constructs using NanoBRET as the detection modality. As depicted in Figure 4A, the specificity of interactions was evaluated through decrease in BRET due to competitive displacement of a bound tracer by excess parental compound. Each tracer was analyzed for binding to each HiBiT-GPCR fusion in the absence and in the presence of competing parental compound. Briefly, HEK293 cells were transfected with HiBiT-GPCR constructs diluted into promoterless DNA to reduce expression and maximize translocation to the cell surface. Each tracer candidate was then screened at concentrations of 1 μM and 0.1 μM across cells expressing these fusions. Cells were treated for 1.5 h with tracer either alone or in the presence of 20 μM competing parental compound (i.e., control). BRET was measured upon addition of purified LgBiT and subsequent complementation with HiBiT genetically fused to a GPCR. The specificity of interactions was assessed through a decrease in BRET signal due to competitive displacement of the bound tracer. To further gauge the robustness of these interactions, the fold response over the control (i.e., BRETtracer/BRETcontrol) was calculated. We chose a 1.5-fold response, which translates to ≥7-fold signal over noise as the minimal threshold required to score an interaction as positive. […]. Below we highlight the screening results obtained for our exemplary fluorescent tracers based on Clozapine, Amitriptyline and AZD1283.
(§2) HiBiT-GPCR DNA constructs were diluted in 10 mM Tris pH 8 to a final concentration of 0.01 μg/μL, arrayed in 96-well plates and stored at −20 °C. For transfection, HEK293 cells were suspended in Opti-MEM (without phenol red) supplemented with 2% fetal bovine serum (Seradigm) and 100 units/mL penicillin–streptomycin (Gibco) at a final concentration of 220,000 cells/mL and dispensed into white 96-well plates at 90 μL/well. Subsequent transfections and screens were carried using an Agilent Bravo Automated Liquid Handling Platform. First, the 96-well HiBiT DNA arrays were diluted 25-fold in Opti-MEM (without serum or phenol red) to a final concentration of 0.0004 μg/μL and 20 μL of the diluted DNAs were transferred into new 96-well plates. Next, promoterless carrier DNA (1 μg/μL) was diluted 25-fold (0.04 μg/μL) and then dispensed into the diluted arrays at 20 μL/well. Following brief mixing, Viafect transfection reagent (Promega) diluted 16-fold into Opti-MEM was dispensed into the plates at 40 μL/well. After mixing by pipetting, plates were incubated for 10 min on the pipetting station deck. The DNA-transfection reagent complexes were then added to plates containing cells. To facilitate the screen, 10 μL of DNA-transfection reagent complexes were added in duplicates to the top 4 and bottom 4 rows, resulting in two identical 48-well arrays per plate. Plates with transfected cells were incubated for 18–20 h at 37 °C/5% CO2. A screen of each tracer across the entire library using two different concentrations requires duplicate plates of transfected cells. Depending on the number of tracers being screened, transfections can be scaled up using the same ratios. The next day, for each tracer, four 20× screening solutions in tracer dilution buffer (Promega) were prepared: two duplicates at final concentration of 20 μM and two duplicates at a final concentration of 2 μM. A competing unmodified compound was added to one of each duplicate at a final concentration of 400 μM. The four resulting solutions were diluted 4-fold in Opti-MEM without serum or phenol red to generate 5× solutions (5 µM and 0.5 µM tracer +/− 100 μM competing compound). To screen the library, a BioTek MultiFlo FX liquid dispenser was used to dispense 22.5 µL of tracer solution to the top 4 rows and 22.5 µL tracer + competing compound solution to the 4 bottom rows. Plates were briefly mixed on an orbital shaker and incubated for 1.5 h at room temperature. […]

AGTR1 = target: T2, AGTR1 (Homo sapiens, UniProt P30556); assay: NanoBRET screen HiBiT-AGTR1 in HEK293
T2 construct: purchased Promega (in-house HiBiT-GPCR construct library, NanoBRET)
T2 sequence (P30556 1-359): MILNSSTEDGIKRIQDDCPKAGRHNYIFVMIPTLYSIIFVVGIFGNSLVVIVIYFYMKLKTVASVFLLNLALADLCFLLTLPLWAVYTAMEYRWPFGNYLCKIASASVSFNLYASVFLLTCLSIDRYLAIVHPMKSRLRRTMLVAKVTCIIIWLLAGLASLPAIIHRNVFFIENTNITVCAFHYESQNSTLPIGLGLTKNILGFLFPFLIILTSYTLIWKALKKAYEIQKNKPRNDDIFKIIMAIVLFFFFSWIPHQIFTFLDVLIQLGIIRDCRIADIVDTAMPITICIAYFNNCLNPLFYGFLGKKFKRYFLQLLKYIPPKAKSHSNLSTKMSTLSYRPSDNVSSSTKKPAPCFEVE
Description: as §1, §2

CCR4 = target: T3, CCR4 (Homo sapiens, UniProt P51679); assay: NanoBRET screen HiBiT-CCR4 in HEK293
T3 construct: purchased Promega (in-house HiBiT-GPCR construct library, NanoBRET)
T3 sequence (P51679 1-360): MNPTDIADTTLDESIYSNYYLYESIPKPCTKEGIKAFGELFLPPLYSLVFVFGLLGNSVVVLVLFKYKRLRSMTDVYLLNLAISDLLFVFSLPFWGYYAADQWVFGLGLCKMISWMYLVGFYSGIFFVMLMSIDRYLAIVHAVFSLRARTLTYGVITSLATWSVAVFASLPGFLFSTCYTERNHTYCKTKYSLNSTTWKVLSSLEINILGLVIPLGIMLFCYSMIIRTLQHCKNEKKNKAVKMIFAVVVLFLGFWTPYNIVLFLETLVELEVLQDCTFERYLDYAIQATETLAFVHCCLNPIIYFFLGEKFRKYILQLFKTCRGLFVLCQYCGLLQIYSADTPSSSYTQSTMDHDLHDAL
Description: as §1, §2

FZD8 = target: T4, FZD8 (Homo sapiens, UniProt Q9H461); assay: NanoBRET screen HiBiT-FZD8 in HEK293
T4 construct: purchased Promega (in-house HiBiT-GPCR construct library, NanoBRET)
Description: as §1, §2

OPRL1 = target: T5, OPRL1 (Homo sapiens, UniProt P41146); assay: NanoBRET screen HiBiT-OPRL1 in HEK293
T5 construct: purchased Promega (in-house HiBiT-GPCR construct library, NanoBRET)
Description: as §1, §2

MCHR1 = target: T6, MCHR1 (Homo sapiens, UniProt Q99705); assay: NanoBRET screen HiBiT-MCHR1 in HEK293
T6 construct: purchased Promega (in-house HiBiT-GPCR construct library, NanoBRET)
Description: as §1, §2

[1] = tracer at 0.1μM, listed as amitriptyline-b-2-NB590
[2] = tracer at 1μM, listed as amitriptyline-b-2-NB590

T5 sequence (P41146 whole entry): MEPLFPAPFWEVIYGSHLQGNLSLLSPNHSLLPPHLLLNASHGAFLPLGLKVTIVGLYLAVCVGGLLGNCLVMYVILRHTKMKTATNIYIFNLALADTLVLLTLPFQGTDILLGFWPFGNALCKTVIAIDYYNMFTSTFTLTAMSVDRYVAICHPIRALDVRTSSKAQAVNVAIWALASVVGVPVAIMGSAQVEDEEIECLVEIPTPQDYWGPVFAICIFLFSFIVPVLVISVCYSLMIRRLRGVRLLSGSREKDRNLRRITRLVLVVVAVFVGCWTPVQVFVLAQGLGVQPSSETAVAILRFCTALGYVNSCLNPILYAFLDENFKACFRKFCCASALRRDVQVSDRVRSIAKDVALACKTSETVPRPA
T6 sequence (Q99705 whole entry): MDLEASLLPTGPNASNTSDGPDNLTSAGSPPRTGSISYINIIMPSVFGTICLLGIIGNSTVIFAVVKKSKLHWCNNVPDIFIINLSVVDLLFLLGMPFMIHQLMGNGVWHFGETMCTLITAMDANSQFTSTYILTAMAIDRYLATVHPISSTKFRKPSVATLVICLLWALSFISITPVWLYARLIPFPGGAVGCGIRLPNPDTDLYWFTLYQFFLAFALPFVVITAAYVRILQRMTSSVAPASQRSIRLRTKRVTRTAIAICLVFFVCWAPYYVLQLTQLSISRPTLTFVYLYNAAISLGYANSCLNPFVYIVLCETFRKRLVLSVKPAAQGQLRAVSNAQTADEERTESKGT
T4 sequence (Q9H461 28-694): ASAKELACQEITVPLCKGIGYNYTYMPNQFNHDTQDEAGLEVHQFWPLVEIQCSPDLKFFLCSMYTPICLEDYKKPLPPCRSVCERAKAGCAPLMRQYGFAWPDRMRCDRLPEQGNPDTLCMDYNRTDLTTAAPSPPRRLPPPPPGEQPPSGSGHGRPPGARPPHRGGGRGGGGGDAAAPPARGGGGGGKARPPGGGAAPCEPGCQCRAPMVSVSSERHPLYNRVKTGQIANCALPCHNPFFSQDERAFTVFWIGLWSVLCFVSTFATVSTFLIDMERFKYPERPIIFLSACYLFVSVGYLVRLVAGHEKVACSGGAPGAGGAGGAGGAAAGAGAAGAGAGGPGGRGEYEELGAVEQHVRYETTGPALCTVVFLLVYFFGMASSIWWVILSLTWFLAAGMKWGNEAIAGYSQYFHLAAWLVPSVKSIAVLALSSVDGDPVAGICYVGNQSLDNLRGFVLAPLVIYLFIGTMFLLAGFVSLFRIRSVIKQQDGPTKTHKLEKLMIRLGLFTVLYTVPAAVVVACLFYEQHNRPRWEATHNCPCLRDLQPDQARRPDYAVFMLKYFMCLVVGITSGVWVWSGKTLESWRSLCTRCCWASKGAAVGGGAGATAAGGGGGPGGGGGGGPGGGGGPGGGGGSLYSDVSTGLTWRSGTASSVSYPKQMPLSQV

CN1CCN(C2=Nc3cc(Cl)ccc3Nc3ccc(CNC(=O)CCOCCOCCOCCOCCNC(=O)CCc4ccc5n4[B-](F)(F)[N+]4=C(c6ccc[nH]6)C=CC4=C5)cc32)CC1 [Clozapine-b-2-NB590]
NanoBRET Fold Response (ADORA2B; ADORA2B, 0.1μM tracer): 1.07 | NanoBRET Fold Response (ADORA2B; ADORA2B, 1μM tracer): 0.99 | NanoBRET Fold Response (AGTR1; AGTR1, 0.1μM tracer): 1.01 | NanoBRET Fold Response (AGTR1; AGTR1, 1μM tracer): 1.06 | NanoBRET Fold Response (CCR4; CCR4, 0.1μM tracer): 1.04 | NanoBRET Fold Response (CCR4; CCR4, 1μM tracer): 0.96 | NanoBRET Fold Response (FZD8; FZD8, 0.1μM tracer): 1.00 | NanoBRET Fold Response (FZD8; FZD8, 1μM tracer): 1.02 | NanoBRET Fold Response (OPRL1; OPRL1, 0.1μM tracer): 1.00 | NanoBRET Fold Response (OPRL1; OPRL1, 1μM tracer): 1.01 | NanoBRET Fold Response (MCHR1; MCHR1, 0.1μM tracer): 0.96 | NanoBRET Fold Response (MCHR1; MCHR1, 1μM tracer): 1.00

CN(C)CCC=C1c2ccccc2CCc2ccc(C(=O)NCCNC(=O)CCOCCOCCOCCOCCNC(=O)CCc3ccc4n3[B-](F)(F)[N+]3=C(c5ccc[nH]5)C=CC3=C4)cc21 [Amitriptyline-b-2-NB590]
NanoBRET Fold Response (ADORA2B; [1]): 1.40 | NanoBRET Fold Response (AGTR1; [1]): 1.12 | NanoBRET Fold Response (AGTR1; [2]): 0.81 | NanoBRET Fold Response (CCR4; [1]): 1.02 | NanoBRET Fold Response (CCR4; tracer at 1μM): 0.95 | NanoBRET Fold Response (FZD8; tracer at 0.1μM): 1.03 | NanoBRET Fold Response (FZD8; tracer at 1μM): 1.00 | NanoBRET Fold Response (OPRL1; [1]): 1.14 | NanoBRET Fold Response (OPRL1; [2]): 1.14 | NanoBRET Fold Response (MCHR1; [1]): 0.79 | NanoBRET Fold Response (MCHR1; [2]): 1.01

CCOC(=O)c1cc(C#N)c(N2CCC(C(=O)NS(=O)(=O)Cc3ccccc3/C=C/C(=O)NCCNC(=O)CCc3ccc4n3[B-](F)(F)[N+]3=C(c5ccc[nH]5)C=CC3=C4)CC2)nc1C [AZD1283-1-NB590]
NanoBRET Fold Response (ADORA2B; ADORA2B, 0.1μM): 0.94 | NanoBRET Fold Response (ADORA2B; ADORA2B, 1μM): 0.93 | NanoBRET Fold Response (AGTR1; AGTR1, 0.1μM): 1.01 | NanoBRET Fold Response (AGTR1; AGTR1, 1μM): 1.05 | NanoBRET Fold Response (CCR4; CCR4, 0.1μM): 1.09 | NanoBRET Fold Response (CCR4; CCR4, 1μM): 1.07 | NanoBRET Fold Response (FZD8; FZD8, 0.1μM): 1.11 | NanoBRET Fold Response (FZD8; FZD8, 1μM): 0.71 | NanoBRET Fold Response (OPRL1; OPRL1, 0.1μM): 0.98 | NanoBRET Fold Response (OPRL1; OPRL1, 1μM): 1.15 | NanoBRET Fold Response (MCHR1; MCHR1, 0.1μM): 1.00 | NanoBRET Fold Response (MCHR1; MCHR1, 1μM): 1.08

CC(C)N(CC[C@H](c1ccccc1)c1cc(CCNC(=O)CCOCCOCCOCCOCCNC(=O)CCc2ccc3n2[B-](F)(F)[N+]2=C(c4ccc[nH]4)C=CC2=C3)ccc1O)C(C)C [Tolterodine-2-NB590]
NanoBRET Fold Response (ADORA2B; ADORA2B, tracer 0.1μM): 0.81 | NanoBRET Fold Response (ADORA2B; ADORA2B, tracer 1μM): 0.97 | NanoBRET Fold Response (AGTR1; AGTR1, tracer 0.1μM): 1.12 | NanoBRET Fold Response (AGTR1; AGTR1, tracer 1μM): 1.00 | NanoBRET Fold Response (CCR4; CCR4, tracer 0.1μM): 1.29 | NanoBRET Fold Response (CCR4; CCR4, tracer 1μM): 1.16 | NanoBRET Fold Response (FZD8; FZD8, tracer 0.1μM): 1.07 | NanoBRET Fold Response (FZD8; FZD8, tracer 1μM): 1.12 | NanoBRET Fold Response (OPRL1; OPRL1, tracer 0.1μM): 1.07 | NanoBRET Fold Response (OPRL1; OPRL1, tracer 1μM): 0.90 | NanoBRET Fold Response (MCHR1; MCHR1, tracer 0.1μM): 1.18 | NanoBRET Fold Response (MCHR1; MCHR1, tracer 1μM): 0.95
